What was measured:
[1] = tested on: PCTP (phosphatidylcholine transfer protein) gene expression; test: Expression of PCTP in rat sebaceous gland (epidermal split) after topical PPARgamma agonist, real-time PCR kinetics; type: in vivo; settings: for PCTP relative induction: topical 1% in acetone, female Fuzzy rats, standardized to 18S, versus carrier group; for PCTP expression in vivo at the level of the sebaceous glands following topical treatment: topical treatment with PPARγ ligand at 1%
Excerpt: Number per batch: 40 (8 animals per group)
Treatment: Route of administration: topical
Compound/batch: PPARgamma agonists: • A: 5-{4-[2-(methylpyridin-2-ylamino)ethoxy]-benzyl}thiazolidine-2,4-dione • B: (2-methoxyethoxymethoxy)naphthalene-2-carboxylic acid [4′-(2,4-dioxothazolidin-5-ylmethyl)biphenyl-3-ylmethyl]methylamide or rosiglitazone • C: (S)-2-ethoxy-3-{4-[6-(3-heptyl-1-methyl-ureido)pyridin-2-yl]phenyl}propionic acid
Method of evaluation: The animals are weighed at the beginning and at the end of the study. Skin biopsies are taken (6 samples of skin excised per rat) in order to analyse the expression of the genes (RNA extraction, reverse transcriptase and real-time PCR). The samples are stored overnight at 4° C. before incubation in 1M sodium bromide (NaBr) for 2 hours at 37° C. After incubation, the samples are separated into epidermis or dermis. The epidermal samples are stored at […]. Under these conditions, the sebaceous glands are in the epidermal split. PCRs are carried out, beginning with the cDNAs originating from the epidermal splits controlling sebaceous glands from control rats or rats treated with a PPARγ agonist; the mRNA is extracted using a column and quantified. The quality of the mRNAs is measured and is represented by the 18S/28S ratio. The results are standardized with respect to 18S, expressed as relative induction versus untreated animals (carrier group). The statistical analysis is obtained using internal software based on a modified Monte Carlo statistical analysis.

[2] = tested on: PCTP (phosphatidylcholine transfer protein) gene expression; test: Expression of PCTP in Fuzzy rat epidermal split after 8 days of topical treatment, Affymetrix transcriptome analysis; type: in vivo; settings: female Fuzzy rats, topical 1% once a day for 8 days, Affymetrix 1387058_at, control condition 143
Protocol: Fuzzy Rat Epidermal Split Expression Data
The studies are carried out in female Fuzzy rats (Hsd: Fuzzy-fz) ten weeks old at the beginning of the study. The animals are treated at a dose of 1% (PPARg agonist rosiglitazone in solution in acetone) once a day for 8 days. Two hours after the final treatment, the animals are sacrificed by euthanasia and the skin on the back is removed. After incubation in dispase, the epidermis carrying the sebaceous glands is detached from the dermis (epidermal split). After grinding of the samples, the mRNA is prepared using Qiagen columns, in accordance with the supplier's instructions. The material thus prepared is subjected to large-scale transcriptome analysis on an Affymetrix platform. The data are subsequently standardized and, after statistical analysis, the results produced are expressed in arbitrary expression units (see below) accompanied, for each piece of data, by a statistical value for presence of the transcript (presence=1; absence=0).

Question: Which PCTP relative induction ([1]; 0 hours) does the source give for “(2-methoxyethoxymethoxy)naphthalene-2-carboxylic acid [4′-(2,4-dioxothazolidin-5-ylmethyl)biphenyl-3-ylmethyl]methylamide” here?
Answer: 1

Question: And the PCTP relative induction ([1]; 8 hours)?
Answer: 2.57

Question: What about the PCTP relative induction ([1]; 24 hours) of the same compound?
Answer: 2.79

Question: What about the PCTP relative induction ([1]; 48 hours) of the same compound?
Answer: 3.37

Question: And the PCTP relative induction ([1]; 96 hours)?
Answer: 1.15

Question: What about the “PCTP expression in vivo at the level of the sebaceous glands following topical treatment” value (shortened to “PCTP expression in vivo at the level”) [1] of the same compound?
Answer: modulated

Question: And the “Expression after treatment with 1% rosiglitazone” value [2]?
Answer: 445 arbitrary expression units

Question: For `CN(CCOc1ccc(CC2SC(=O)NC2=O)cc1)c1ccccn1` (stereo not shown) [A, 5-{4-[2-(methylpyridin-2-ylamino)ethoxy]-benzyl}thiazolidine-2,4-dione], which PCTP relative induction ([1]; 0 hours) is on record?
Answer: 1

Question: And the PCTP relative induction ([1]; 8 hours)?
Answer: 7.06

Question: What about the PCTP relative induction ([1]; 24 hours) of the same compound?
Answer: 8.54

Question: What about the PCTP relative induction ([1]; 48 hours) of the same compound?
Answer: 6.70

Question: What about the PCTP relative induction ([1]; 96 hours) of the same compound?
Answer: 3.38

Question: What about the “PCTP expression in vivo at the level” value [1] of the same compound?
Answer: modulated

Question: `CCCCCCCNC(=O)N(C)c1cccc(-c2ccc(C[C@H](OCC)C(=O)O)cc2)n1` [C, (S)-2-ethoxy-3-{4-[6-(3-heptyl-1-methyl-ureido)pyridin-2-yl]phenyl}propionic acid] was tested. Which PCTP relative induction ([1]; 0 hours) did it give?
Answer: 1

Question: And the PCTP relative induction ([1]; 8 hours)?
Answer: 1.54

Question: And the PCTP relative induction ([1]; 24 hours)?
Answer: 3.69

Question: And the PCTP relative induction ([1]; 48 hours)?
Answer: 3.11

Question: And the PCTP relative induction ([1]; 96 hours)?
Answer: 1.38

Question: What about the “PCTP expression in vivo at the level” value [1] of the same compound?
Answer: modulated

Source: patent publication US20110268742A1, “PCTP MODULATORS IN THE TREATMENT OF ACNE, OF SEBORRHOEIC DERMATITIS OR OF HYPERSEBORRHOEA” (Galderma Research & Development, priority 2008, published 2011)
